The target of this test is T1, Abl Y393F (Mus musculus, UniProt P00520, Y393F).
T1 construct: 0.4 μg/ml Abl kinase domain; Met-Ser-Leu (vector-derived) (N); made in house
T1 sequence (P00520 242-493 Y393F limits assumed): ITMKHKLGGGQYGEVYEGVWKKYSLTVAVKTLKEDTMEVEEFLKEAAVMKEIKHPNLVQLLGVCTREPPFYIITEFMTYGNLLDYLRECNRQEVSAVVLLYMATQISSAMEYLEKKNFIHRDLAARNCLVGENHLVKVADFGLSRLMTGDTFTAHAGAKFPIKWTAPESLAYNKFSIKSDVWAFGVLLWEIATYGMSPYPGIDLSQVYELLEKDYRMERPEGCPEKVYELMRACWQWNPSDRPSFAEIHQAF
Kind of test: Abl Y393F kinase enzyme assay. The test is classed as biochemical. The note with it: read-out: Abl_Y393F IC50. The source says: Although the first of these examples uses the kinase domain of a mutant form of Abl T315I (“Abl T315I KD”), the kinase assays may use various forms of mutant and wild type enzymes, including, for example, the entire protein, the kinase domain, or a portion thereof (e.g. Abl Y393F). The kinases used in the assays may also be of varying phosphorylation states. In the c-Abl example, a mutant kinase at a zero phosphorylation state was used.
In addition to the c-Abl PK/LDH coupled assay (above), homogeneous luminescence-based inhibitor screening assays were developed for c-Abl, MET, AurA, and PDK1 kinases (among others). Each of these assays made use of an ATP depletion assay (Kinase-Glo™, Promega Corporation, Madison, Wis.) to quantitate kinase activity. The Kinase-Glo™ format uses a thermostable luciferase to generate luminescent signal from ATP remaining in solution following the kinase reaction. The luminescent signal is inversely correlated with the amount of kinase activity.
cAbl Luminescence-Based Enzyme Assay
Materials: Abl substrate peptide=EAIYAAPFAKKK SEQ ID NO:1)-OH (Biopeptide, San Diego, Calif.), ATP (Sigma Cat#A-3377, FW=551), HEPES buffer, pH 7.5, Bovine serum albumin (BSA) (Roche 92423420), MgCl2, Staurosporine (Streptomyces sp. Sigma Cat#85660-1MG), white Costar 384-well flat-bottom plate (VWR Cat#29444-088), Abl kinase (see below), Kinase-Glo™ (Promega Cat#V6712).
Stock Solutions: 10 mM Abl substrate peptide (13.4 mg/ml in miliQH2O) stored at −20° C.; 100 mM HEPES buffer, pH 7.5 (5 ml 1M stock+45 ml miliQH2O); 10 mM ATP (5.51 mg/ml in dH2O) stored at −20° C. (diluted […] into total of 10 ml miliQH2O daily=50 μM ATP working stock); 1% BSA (1 g BSA in 100 ml 0.1 M HEPES, pH 7.5, stored at −20° C.), 100 mM MgCl2; 200 μM Staurosporine, 2× Kinase-Glo™ reagent (made fresh or stored at −20° C.).
Standard Assay Setup for 384-well format (20 μl kinase reaction, 40 μl detection reaction): 10 mM MgCl2; 100 μM Abl substrate peptide; 0.1% BSA; 1 μl test compound (in DMSO); 0.4 μg/ml Abl kinase domain; 10 μM ATP; 100 mM HEPES buffer. Positive controls contained DMSO with no test compound. Negative controls contained 10 μM staurosporine. The kinase reactions were initiated at time t=0 by the addition of ATP. Kinase reactions were incubated at 21° C. for 30 min, then 20 μl of Kinase-Glo™ reagent were added to each well to quench the kinase reaction and initiate the luminescence reaction. After a 20 min incubation at 21° C., the luminescence was detected in a plate-reading luminometer.

For orientation: IC50 means the concentration that gives 50% inhibition. For the compound `O=C(c1cccc(-c2cnc3[nH]nc(-c4cccc5cccnc45)c3c2)c1)N1CCOCC1`, the 50% inhibitory concentration (IC50) was less than 1 µM. With `COc1ccccc1-c1n[nH]c2ncc(-c3cccc(S(=O)(=O)NC4CC4)c3)cc12`, the IC50 is less than 1 µM. With `c1ccc(-c2n[nH]c3ncc(-c4cccnc4)cc23)cc1` the figure was less than 1 µM; with `COc1ccccc1-c1n[nH]c2ncc(-c3ccc(C(=O)NC4CC4)cc3)cc12`, less than 1 µM; with `c1ccc(-c2n[nH]c3ncc(-c4ccc5[nH]ccc5c4)cc23)cc1`, less than 1 µM. For `COc1ccccc1-c1n[nH]c2ncc(-c3ccc(C(=O)N4CCCCC4)cc3)cc12` the value was 1 to 10 µM; for `COc1ccccc1-c1n[nH]c2ncc(-c3cccnc3)cc12`, less than 1 µM. With `CCOc1ccccc1-c1n[nH]c2ncc(-c3cccc(C(=O)N4CCOCC4)c3)cc12` the figure was less than 1 µM. For the compound `CCN1CCN(C(=O)c2cccc(-c3cnc4[nH]nc(-c5cc(F)ccc5OC)c4c3)c2)CC1`, the IC50 was less than 1 µM. On to `Cc1ccsc1-c1n[nH]c2ncc(-c3cccc(C(=O)N4CCOCC4)c3)cc12`, for which the IC50 was less than 1 µM.

Take `COc1ccccc1-c1n[nH]c2ncc(-c3ccc(C(=O)N4CCOCC4)cc3)cc12`: the IC50 is less than 1 µM.

On to `COc1cc(-c2cnc3[nH]nc(-c4ccccc4)c3c2)ccc1O`, for which the IC50 is less than 1 µM. For `COc1ccccc1-c1n[nH]c2ncc(-c3cccc(C(=O)N(C)C)c3)cc12` the value was less than 1 µM; for `COc1cc(-c2cnc3[nH]cc(-c4ccc(C)cc4)c3n2)ccc1O`, less than 1 µM; for `COc1ccccc1-c1n[nH]c2ncc(-c3ccc(C(=O)N4CCCC4)cc3)cc12`, less than 1 µM.

As for `Oc1cccc(-c2cnc3[nH]nc(-c4ccccc4)c3c2)c1`, the IC50 is less than 1 µM. With `Cc1cc(F)ccc1-c1n[nH]c2ncc(-c3cccc(C(=O)N4CCOCC4)c3)cc12` the figure was less than 1 µM. For `COc1ccccc1-c1n[nH]c2ncc(-c3cccc(C(=O)N4CCC(CO)CC4)c3)cc12` the value was less than 1 µM; for `COc1ccccc1-c1cnc2[nH]nc(-c3ccccc3OC)c2c1`, less than 1 µM. `COc1ccccc1-c1c[nH]c2ncc(-c3cccc(C(=O)N(C)C)c3)nc12`: the IC50 was less than 1 µM. For `COc1c(F)cccc1-c1n[nH]c2ncc(-c3cccc(C(=O)N4CCOCC4)c3)cc12`, the IC50 is less than 1 µM.

`COc1ncc(-c2n[nH]c3ncc(-c4cccc(C(=O)N5CCOCC5)c4)cc23)c(OC)n1`: the half-maximal inhibitory concentration (IC50) was less than 1 µM. Consider `O=C(c1cccc(-c2cnc3[nH]nc(-c4ccncc4Cl)c3c2)c1)N1CCOCC1`, for which the IC50 is less than 1 µM. With `COc1ccccc1-c1n[nH]c2ncc(-c3ccc(C(=O)N4CCN(C)CC4)cc3)cc12` the figure was less than 1 µM; with `COc1ccccc1-c1n[nH]c2ncc(-c3cccc(C(=O)NC(C)C)c3)cc12`, less than 1 µM. With `COc1ccccc1-c1n[nH]c2ncc(Br)cc12` the figure was less than 1 µM; with `CCc1ccccc1-c1n[nH]c2ncc(-c3cccc(C(=O)N4CCOCC4)c3)cc12`, less than 1 µM; with `COc1ccccc1-c1n[nH]c2ncc(-c3cnc4[nH]n(C)c(=O)c4c3)cc12`, less than 1 µM. Turning to `COc1ccccc1-c1n[nH]c2ncc(-c3cccc(C(=O)N4CCN(C)CC4)c3)cc12`, the 50% inhibitory concentration (IC50) is less than 1 µM. Regarding `O=C(c1cccc(-c2cnc3[nH]nc(-c4ccc5cc[nH]c5c4)c3c2)c1)N1CCOCC1`, the IC50 was less than 1 µM. With `COc1ccccc1-c1n[nH]c2ncc(-c3cccc(C(=O)N4CCN(CCN(C)C)CC4)c3)cc12`, the IC50 is less than 1 µM.

As to `COc1ccccc1-c1n[nH]c2ncc(-c3cccc(C(=O)N4CCCC4)c3)cc12`, the IC50 was less than 1 µM. With `COc1ccccc1-c1n[nH]c2ncc(-c3ccc(O)c(C(=O)N4CCOCC4)c3)cc12` the figure was less than 1 µM; with `Cn1ccc2cc(-c3n[nH]c4ncc(-c5cccc(C(=O)N6CCOCC6)c5)cc34)ccc21`, less than 1 µM.
